In patent US7374890B2, “Methods for identifying compounds that modulate ΔTRα2 activity” (University of Massachusetts, priority 2000, dated 2008):

What was measured:
[1] = tested on: Ca-dependent Mg-ATPase release of p29 vesicles from F-actin; assay: release of F-actin-bound p29 vesicles by Ca-dependent Mg-ATPase; type: biochemical, rat; details: 5 mM EGTA
Text: To determine whether this is a direct interaction between the vesicle and F-actin or is mediated by other actin-bound proteins, e.g., myosin V, the release of p29 vesicle bound to F-actin by activating a Ca-dependent Mg-ATPase was investigated. Synaptic vesicle-bound myosin V is released from F-actin by activating the Ca-dependent MgATPase found in the actin binding head of myosin V (Prekeris et al, 1997, J. Cell Biol. 137: 1589-1601; Nascimento et al., 1996, J. Biol. Chem. 271:17561-17569). In this experiment, confluent monolayers of astrocytes were grown in serum-free media for 16 hours, then D2 activity was induced with bt2cAMP and hydrocortisone, and the p29 vesicle was affinity radiolabeled with BrAc[^125I]T4. Cell lysates containing approximately 50,000 cpm of BrAc[^125I]T4-labeled p29 were pretreated with 10 nM […] at 37° C., followed by an additional 20 minute incubation with 0.1 mM Ca^2+, 1 mM Mg^2+, 0.1 mM ATP, or 5 mM EGTA. Triton-insoluble (F-actin bound) pellets were prepared as described herein. […] Triton-insoluble (F-actin-bound) pellets were separated from the Triton-soluble (vesicle) fraction by microfuge centrifugation (14,000×g for five minutes) and the distribution of p29 was determined by y-counting, and by SDS-PAGE analysis.

[2] = tested on: D2 activity; details: in astrocytes; cited from earlier work
[3] = tested on: T4 deiodinases; details: cited from earlier work
[4] = biological target: transthretin (Homo sapiens, UniProt P02766); details: cited from earlier work
[5] = tested on: deiodination; details: cited from earlier work
[6] = biological target: T1, ΔTRα2 (T4 Inactivating Protein; TIP) (Rattus norvegicus, UniProt P63059); assay: rT3 binding displacement in nuclei-free extracts of cultured rat astrocytes
T1 construct: ΔTRα2 is encoded by exons 8-10 resulting in an approximately 25 kd protein
Protocol: The properties of thyroid hormone binding to non-nuclear components of the cell were examined using ΔTRα2 (T4 Inactivating Protein; TIP)-containing, nuclei-free extracts of cultured rat astrocytes. […] Both rT3 and T4 specifically displace rT3 with Kd's of approximately 0.3-0.5 nM.

[7] = biological target: ΔTRα1 (Rattus norvegicus, UniProt P63059); assay: [125I]rT3 displacement from cell-free translated ΔTRα1; type: binding; details: cell-free translated polypeptide
Text: (§1) ΔTRα1 and ΔTRα2 polypeptides were synthesized by cell-free translation of appropriate segments of the rat ΔTRα1 and ΔTRα2 cDNA using the coupled transcription-translation kit from Promega® (TNT) according to the manufacturer's instructions.

[8] = biological target: T2, ΔTRα2 (Rattus norvegicus, UniProt P63059); assay: [125I]rT3 displacement from cell-free translated ΔTRα2; type: binding; details: cell-free translated polypeptide
T2 sequence (P63059 256-492): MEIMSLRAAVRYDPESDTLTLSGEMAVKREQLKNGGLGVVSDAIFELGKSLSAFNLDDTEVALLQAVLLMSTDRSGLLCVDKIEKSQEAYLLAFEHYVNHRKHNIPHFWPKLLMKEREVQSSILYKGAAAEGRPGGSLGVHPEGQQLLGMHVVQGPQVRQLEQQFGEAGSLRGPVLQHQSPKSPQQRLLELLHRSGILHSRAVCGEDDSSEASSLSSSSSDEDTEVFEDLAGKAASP
Text: as §1

[9] = biological target: binding of p29^GFP vesicles to F-actin; assay: modified in vitro actin binding assay with p29^GFP-labeled vesicles; type: biochemical, rat; details: 0-100 nM, 20 minutes at 37° C.; read-out: EC50, increase in quantity of p29^GFP bound to F-actin
Protocol: To define the specific region(s) of the myosin V tail that interact with the p29 vesicle, a series of deletion mutations were created based on the dominant negative effect of exogenous myosin V tail on p29 vesicle binding. Competition analysis of the myosin V deletion mutations on T4-dependent binding of p29 vesicles to F-actin was performed using a modified in vitro assay in which a GFP-tagged p29 fusion protein (p29^GFP) replaced the radioaffinity labeled native p29 (Farwell et al., 1990, J. Biol. Chem. 265:18546-18553; Farwell et al., 1993, J. Biol. Chem. 268:5055-5062). This allowed direct evaluation of the binding of fluorescent vesicles to F-actin without affinity radiolabeling of the p29 and subsequent SDS-PAGE analysis.
Specific fluorescence at 510 nm (excitation, 488 nm) was then determined in the resuspended Triton-insoluble pellets.
To determine if the myosin V tail could be captured by the p29^GFP vesicle, an exogenous myosin V^tail was introduced into astrocytes constitutively expressing p29^GFP by infection with Ad5-ΔMyo V^tail virus particles and examined the effects of T4 on the binding of the myosin V^tail to immunopurified p29^GFP vesicles. Astrocytes expressing p29^GFP were grown in serum-free media and treated for 16 hours with 1 mM bt2cAMP and 100 nM hydrocortisone. A separate pool of astrocytes was treated in serum-free media supplemented with 10 μM retinoic acid. Cells were collected by scraping, and lysed by two freeze-thaw cycles. […] Triton-soluble (vesicle) and Triton-insoluble (F-actin) fractions were separated by microflige centrifugation. Triton pellets were resuspended in 300 μl of PBS and fluorescence at 510 nm (excitation 488 nm) determined and relative fluorescence was reported as arbitrary units. Cells were treated with 10 nM T4 for twenty minutes and a Triton-soluble supernatant was prepared. Vesicles containing the p29^GFP were immunoprecipitated by anti-GFP IgG (2 μg/ml) and protein in the immunoprecipitates were resolved by SDS-PAGE. Immunoblot analysis of vesicle-associated myosin V was performed using the anti-myosin V antibody directed against the C-terminus.
The quantity of each mutant protein synthesized was determined by [^35 S]-methionine incorporation. Astrocytes expressing p29^GFP were grown in serum-free media and treated for 16 hours with […] bt2cAMP and 100 nM hydrocortisone. p29^GFP V-lysate and F-lysate were prepared as described herein. 100 μg aliquots of p29^GFP V-lysate and F-lysate were pre-incubated, in triplicate, for 20 minutes at 37° C. in the presence of individual Δ myosin V mutant proteins (˜2-3 pmol polypeptide/50 μl mixture) were added to the actin-binding assay and pre-incubated for 20 minutes at 37° C. T4 (10 nM) was then added, the mixtures incubated for 20 minutes at 37° C., and F-actin bound, fluorescent p29^GFP vesicles were then isolated in the Triton-insoluble pellet.
V lysates prepared from astrocytes over-expressing p29^GFP were pre-incubated for 30 minutes at room temperature with antisera raised against ΔTRα2, ΔTRα1, the C-terminus of MyoV (encoded by MyoV^tail, FIG. 5), the coiled-coil region of MyoV (encoded by MyoV^coil-coil, FIG. 5) and GFP (green fluorescent protein). T4 (10 nM) and actin fiber-containing F-lysate was then added, the mixtures incubated at 37° C. for 20 minutes, and the Triton-insoluble fraction isolated by centrifugation.

[10] = tested on: astrocytes; assay: subcellular distribution of immunoreactive TRα2-derived proteins in cultured astrocytes; type: cell-based, rat; details: serum-free medium, treated 20 minutes, 0.1% bovine serum albumin carrier
Text: The subcellular distribution of immunoreactive thyroid hormone receptor-derived proteins in primary brain cell cultures and in cultured astrocytes was examined. Primary brain cell cultures were fixed with 0.4% paraformaldehyde, permeabilized with Triton X-100®, and stained for TRα-derived proteins using specific antisera directed against the unique C-termini of TRα1 and TRα2 proteins, and visualized by staining with a secondary tagged antibody. Consistent with previous observations (Kolodny et al., 1985, Endocrinol. 117: 1848-1857), immunoreactive TRα1 proteins were found in the nuclei of astrocytes and neuronal cells. However, TRα2-derived proteins were not localized to the nucleus in either astrocytes or neurons, but appeared as donut shaped structures located throughout the astrocyte or as discreet punctate signals along neuronal fibers. This latter pattern is diagnostic for synapses in neuronal cultures (Wong et al., 1999, Neurosci. 89:221-233), and is consistent with the presence of ΔTRα2-derived protein in nerve terminals.
The subcellular distribution of immunoreactive TRα2-derived proteins in cultured astrocytes was influenced by the presence of either T4 or rT3. In these experiments astrocytes were grown in serum-free medium, treated for 20 minutes with either […] or rT3, and fixed, permeabilized, and stained as described above. […]

[11] = tested on: cerebellar granule neurons; assay: release of FM1-43-loaded synaptic vesicles from cerebellar granule neurons under continuous stimulus; type: cell-based, rat; details: 10 nM hormone; continuous stimulation by 50 mM KCl; vs no hormone controls; first order kinetics assumed
Protocol: Granule neurons were grown for 7 days and rendered hormone free by growth in serum-free medium as detailed above. Coverslips were then placed in a perfusion chamber, mounted on the stage of a laser scanning confocal microscope and perfused at 1 ml/min at 25° C. with perfusion buffer (119 mM NaCl, 2.5 mM KCl, 2 mM CaCl2, 2 mM MgCl2, 25 mM HEPES (pH 7.4), 30 mM glucose, and […] AP-5). The effects of different hormones on synaptic vesicle trafficking were then determined. […] Depolarizing KCl was then removed from the perfusion buffer and the cells were exposed to FM1-43 for an additional 30 seconds to insure complete loading of recycling synaptic vesicles. Loaded cells were then washed free of dye and the cells were perfused for ten minutes at rest.
Images of a single field of neuronal fibers were then taken immediately before adding a second depolarizing solution (perfusion buffer containing 50 mM KCl) and at one and two minutes after beginning the continuous stimulation by 50 mM KCl. Thirty to forty-five individual FM1-43 labeled nerve terminals were identified in the baseline images (taken prior to depolarization) and the change in fluorescence (DF) for each nerve terminal determined at the one and two minute time points. FIGS. 11A and 11B show the results of analysis of the hormone specificity of synaptic vesicle trafficking (FIG. 11A) and the influence of individual myo5a mutants (FIG. 11B) on synaptic vesicle transport in granule neurons.
To evaluate the role of myo5a in synaptic vesicle transport, three different myo5a constructs were introduced into the neurons by replication-deficient adenoviral vectors (Δmyo5a^tail(MyoV^tail), Δmyo5a^c-term(MyoV^1830)and ΔMyo5a^CC(MyoV^cc) see FIG. 5) as described above. […] Neurons were infected with purified Ad5-constructs (MOI=10) 48 hours prior to the synaptic vesicle trafficking study, and allowed to recover in hormone (T4) supplemented medium. […] This modest influence of the VBD mutant on synaptic vesicle retention is likely to be due to the loss of the kinesin-binding domain that limits its delivery to nerve terminals.

T1 sequence (P63059 whole entry, stated change not applied): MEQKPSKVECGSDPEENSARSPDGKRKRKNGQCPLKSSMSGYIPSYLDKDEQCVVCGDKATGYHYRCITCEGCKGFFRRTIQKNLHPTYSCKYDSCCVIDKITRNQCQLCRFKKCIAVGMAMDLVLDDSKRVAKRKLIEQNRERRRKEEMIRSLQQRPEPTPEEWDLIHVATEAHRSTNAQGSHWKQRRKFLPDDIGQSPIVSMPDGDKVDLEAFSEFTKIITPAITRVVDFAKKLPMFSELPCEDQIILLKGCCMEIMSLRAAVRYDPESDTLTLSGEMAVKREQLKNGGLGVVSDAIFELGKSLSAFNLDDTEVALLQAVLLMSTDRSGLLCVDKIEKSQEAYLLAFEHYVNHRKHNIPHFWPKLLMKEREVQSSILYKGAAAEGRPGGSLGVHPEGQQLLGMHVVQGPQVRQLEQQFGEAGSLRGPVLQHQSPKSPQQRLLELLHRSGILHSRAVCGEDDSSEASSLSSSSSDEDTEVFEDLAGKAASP

For `O=C(O)CN(CCOCCOCCN(CC(=O)O)CC(=O)O)CC(=O)O` [EGTA], the “block of Ca2+-stimulated, Mg2ATPase-dependent release of p29 from F-actin” value [1] was “more than 50%”.

In the case of `Cc1c(-c2cc(Br)c(O)c(Br)c2)oc2ccc(O)cc2c1=O` [EMD21388], the “quantity of D2 activity” value [2] is given as “decreases the quantity of D2 activity”, the “inhibition of T4 deiodinases” value [3] is given as “can inhibit” and the “block of the binding of T4 to transthretin” value [4] is given as “competitively block”.

In the case of `O=C(CCc1ccc(O)cc1)c1c(O)cc(O)cc1O` [phloretin], the inhibition of deiodination [5] is given as “potent inhibitor”.

`N[C@@H](Cc1ccc(Oc2cc(I)c(O)c(I)c2)c(I)c1)C(=O)O` [rT3, 3, 3′, 5′-triiodothyronine] showed a Kd [6] of 0.3 to 0.5 nM, a Kd [7] of 0.3 to 1 nM and a Kd [8] of 0.3 to 1 nM. The EC50 [9] was about 0.5 nM, the “subcellular distribution of TRα2-derived proteins” value [10] was “coalescence of the TRα2-derived proteins around the perinuclear space” and the “decrease of the rate of FM1-43 release” value [11] was 75%.
